Literature values in patent US20240398886A1, “EFFECTIVE EYELID, FACE, HEAD AND BODY CLEANSER” (priority 2023, published 2024).

Columns and labels:
[1] = mammals; refs (12, 13)
[2] = humans and warm-blooded vertebrates; refs (12, 13)

## C/C=C(\C)C(=O)O[C@H]1C[C@@H](OC(C)=O)[C@@]2(C(=O)OC)CO[C@H]3[C@@H](O)[C@@](C)([C@]45O[C@@]4(C)[C@H]4C[C@@H]5O[C@@H]5OC=C[C@@]54O)[C@H]4[C@]1(CO[C@]4(O)C(=O)OC)[C@@H]32 [Azadirachtin]
[1]
  genotoxicity: without genotoxicity
[2]
  toxicity: non-toxic
